Key:
Format in all cases: ADME, organism-based
[1] = Apparent volume of distribution in BALB/c mouse at 5 mg/kg, iv measured upto 24 hrs by LC-MS/MS analysis; conditions: in vivo, read-out: Vz
[2] = Apparent volume of distribution in BALB/c mouse at 10 mg/kg, po measured upto 24 hrs by LC-MS/MS analysis; conditions: in vivo
[3] = MRT(0 to t) in BALB/c mouse at 5 mg/kg, iv measured upto 24 hrs by LC-MS/MS analysis; conditions: in vivo
[4] = Cmax in BALB/c mouse at 10 mg/kg, po measured upto 24 hrs by LC-MS/MS analysis; conditions: in vivo
[5] = Tmax in BALB/c mouse at 10 mg/kg, po measured upto 24 hrs by LC-MS/MS analysis; conditions: in vivo
[6] = Cmax in BALB/c mouse at 5 mg/kg, iv measured upto 24 hrs by LC-MS/MS analysis; conditions: in vivo
[7] = AUC(0 to t) in BALB/c mouse at 5 mg/kg, iv measured upto 24 hrs by LC-MS/MS analysis; conditions: in vivo
[8] = Tmax in BALB/c mouse at 5 mg/kg, iv measured upto 24 hrs by LC-MS/MS analysis; conditions: in vivo
[9] = Bioavailability in BALB/c mouse at 5 mg/kg, iv measured upto 24 hrs by LC-MS/MS analysis; conditions: in vivo
[10] = AUC(0 to t) in BALB/c mouse at 10 mg/kg, po measured upto 24 hrs by LC-MS/MS analysis; conditions: in vivo
[11] = MRT(0 to t) in BALB/c mouse at 10 mg/kg, po measured upto 24 hrs by LC-MS/MS analysis; conditions: in vivo

## Cn1cnc(-c2ccc(F)cc2)c1-c1ccc2ncc(C#CC(C)(C)O)cc2c1
[1]
  Vd: 0.846 L/kg
[2]
  Vz: 1.41 L/kg
[3]
  MRT last at 24 h: 4.46 h
[4]
  Cmax: 5250 ng/mL
[5]
  Tmax: 1.17 h
[6]
  Cmax: 6340 ng/mL
[7]
  AUC(0-t) at 24 h: 27000 ng·h/mL
[8]
  Tmax: 4.98 min
[9]
  bioavailability: 84.6%
[10]
  AUC(0-t) at 24 h: 45700 ng·h/mL
[11]
  MRT last at 24 h: 6.11 h

Reference: ChEMBL document CHEMBL5543106, “Fragment growth-based discovery of novel TNIK inhibitors for the treatment of colorectal cancer” (Eur J Med Chem, 2024)
